From paper PMC3076215 (Biochemistry, 2011)

Molecular target: T1, Carbon monoxide dehydrogenase (CODH) (Afipia carboxidovorans, UniProt P19920)
T1 sequence (P19920 1-288): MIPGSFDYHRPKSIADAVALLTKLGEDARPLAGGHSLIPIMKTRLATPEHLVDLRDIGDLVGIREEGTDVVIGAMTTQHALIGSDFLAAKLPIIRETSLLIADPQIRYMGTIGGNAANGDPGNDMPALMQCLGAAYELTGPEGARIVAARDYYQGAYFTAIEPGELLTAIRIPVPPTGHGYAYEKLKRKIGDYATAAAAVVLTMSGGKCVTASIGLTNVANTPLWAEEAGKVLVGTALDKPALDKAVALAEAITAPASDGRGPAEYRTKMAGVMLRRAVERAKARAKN
T1 sequence (P19919 1-809 partner): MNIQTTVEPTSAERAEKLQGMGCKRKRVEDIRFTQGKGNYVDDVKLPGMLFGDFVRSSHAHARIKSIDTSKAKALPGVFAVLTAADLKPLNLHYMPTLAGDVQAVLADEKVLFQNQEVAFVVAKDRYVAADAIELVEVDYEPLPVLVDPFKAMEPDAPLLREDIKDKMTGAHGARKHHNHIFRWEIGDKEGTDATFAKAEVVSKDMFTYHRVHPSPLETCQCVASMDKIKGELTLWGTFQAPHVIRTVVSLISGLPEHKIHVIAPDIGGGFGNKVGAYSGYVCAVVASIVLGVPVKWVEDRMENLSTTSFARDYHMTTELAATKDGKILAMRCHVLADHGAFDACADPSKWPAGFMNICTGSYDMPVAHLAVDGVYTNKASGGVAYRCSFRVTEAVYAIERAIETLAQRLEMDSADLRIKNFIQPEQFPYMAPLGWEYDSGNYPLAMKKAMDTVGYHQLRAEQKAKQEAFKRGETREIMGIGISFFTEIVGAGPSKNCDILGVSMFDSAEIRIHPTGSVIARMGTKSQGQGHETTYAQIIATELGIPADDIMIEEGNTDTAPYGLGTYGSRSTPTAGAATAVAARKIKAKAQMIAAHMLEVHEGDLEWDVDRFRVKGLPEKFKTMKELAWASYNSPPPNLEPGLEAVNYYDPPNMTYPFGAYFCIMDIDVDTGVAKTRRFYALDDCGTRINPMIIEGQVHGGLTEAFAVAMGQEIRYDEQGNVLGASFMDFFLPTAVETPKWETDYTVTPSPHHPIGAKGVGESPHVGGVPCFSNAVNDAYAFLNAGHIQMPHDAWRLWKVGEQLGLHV
T1 sequence (P19921 1-166 partner): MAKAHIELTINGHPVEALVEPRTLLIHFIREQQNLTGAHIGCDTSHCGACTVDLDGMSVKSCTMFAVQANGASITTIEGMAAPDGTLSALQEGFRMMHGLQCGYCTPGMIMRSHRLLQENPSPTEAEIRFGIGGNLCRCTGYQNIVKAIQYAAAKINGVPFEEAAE
Test: UV-vis difference titration at […] nm
Type: binding

Compound: O=C1C=CC(=O)C=C1 [1,4-benzoquinone]
- Kd: 100 µM
